From patent US20060127505A1, “Anti-inflammatory formulations” (priority 2002, published 2006)

Tests used:
[1] = Allergy symptoms in an allergy patient; assay type: in vivo, human
Experimental: Astaxanthin or astaxanthin plus a cetirizine together was administered to an allergy patient.

[2] = tested on: cAMP and cGMP concentrations in the lung tissue; assay: Ovalbumin-induced asthma in guinea pigs: cAMP and cGMP in lung tissue (radioimmunoassay); assay type: in vivo, guinea pig; settings: lung tissue 24 hours after OV challenge
Experimental: The effect combinations of vitamin C, astaxanthin, and ginkolide on asthma-associated disease parameters ovalbumin(OA)-induced asthma in guinea pigs was evaluated. Twenty-four hours following OA challenge, animals are sacrificed and numbers of inflammatory cells (eosinophils, neutrophils, macrophages) are measured in bronchoalveolar lavage (BAL) fluid; and cAMP and cGMP concentrations in the lung tissue. The experiments were carried out as follows. Male Hartley guinea pigs (250-350 g) were sensitized by intramuscular injections of 0.35 ml of a 5% (W/V) ovalbumin (OA)/saline solution into each thigh on days 1 and 4. Guinea pigs were ready for asthmatic challenge after 25 days of ovalbumin injection. Asthmatic challenge was carried out with ovalbumin aerosol, and bronchoalveolar lavage (BAL) was done 24 hours later. The numbers of eosinophils, neutrophils, and macrophages in the BAL fluid were counted. Biopsies from lung tissues, cAMP and cGMP were measured using commercially available radioimmunoassay kits (Amersham). Immediately after sampling, lung biopsies were frozen by means of a Wollenberger clamp prechilled in liquid nitrogen. Samples were powdered with a pestle and mortar in liquid nitrogen and trichloro acetic acid (TCA) was added to the powdered frozen samples ([…] of tissue). Samples were further homogenized in the frozen TCA in the braying mortar and then centrifuged at 14,000×g for 10 min at 4° C. The supernatants were extracted 6 times in water-saturated diethylether, evaporated and assayed for cGMP by radioimmunoassay using liquid scintillation counter (Packard, Tri-Carb 2100TR). The dose-responsive effect of AX, EGb761, and vitamin C administered independently for suppression of asthma-associated parameters in allergen-induced, asthmatic guinea pigs was determined. Ibuprophen (IB) was used as the positive control. Concentration of inflammatory cells in bronchoalveolar lavage (BAL) fluid and levels of cAMP and cGMP in lung tissue were measured in guinea pigs 24 hours following challenge with OV. […] The dose-responsive effect of AX, EGb761, and vitamin C administered in combination for suppression of asthma-associated parameters in allergen-induced, asthmatic guinea pigs was determined. The combination of these three components was given each day for each guinea pig as a “cocktail”. Concentration of inflammatory cells in bronchoalveolar lavage (BAL) fluid and levels of cAMP and cGMP in lung tissue were measured in guinea pigs 24 hours following challenge with OV.

[3] = tested on: CD3+HLA-DR+ lymphocytes in human PBMC; assay: PHA-mediated induction of CD3+HLA-DR+ lymphocytes in human PBMC (Example 8); assay type: cell-based; settings: PHA 50 μg/ml, 24 hours
Experimental: (§1) Cells from 3-12 asthma patients were cultured 24 hours with 50 μg/ml PHA. PBMC evaluated by 2-color flow cytometry were gated for CD3+ and analyzed for CD3+CD25+ or CD3+HLA-DR+ as a percentage of the CD3+ population. Results are reported as stimulation indices (SI) calculated as the ratio of % CD3+CD25+ cells or % CD3+HLA-DR+ cells in fully-stimulated cultures to % CD3+CD25+ or % CD3+HLA-DR+ respectively in cells treated with PHA plus ASX, GB, or combinations thereof.

[4] = tested on: CD3+CD25+ lymphocytes in human PBMC; assay: PHA-mediated induction of CD3+CD25+ lymphocytes in human PBMC (Example 8); assay type: cell-based; settings: PHA 50 μg/ml, 24 hours
Experimental: as §1

PMA/I-treated human PBMC = assay: Inflammation-associated T cell surface antigens (CD25, CD54) in PMA/I-treated human PBMC, two-color flow cytometry; assay type: cell-based
Experimental: In vitro studies indicate that astaxanthin suppresses expression of inflammation-associated T cell surface antigens in PMA/I-treated human PBMC. […]
Analysis of blood for representation by selected lymphocyte subpopulations was conducted by two-color flow cytometry.

TNF-α = TNF-α expression by PHA-stimulated human PBMC, ELISA of supernatant; assay type: cell-based; settings: PHA 50 μg/ml, 24 hours; 10^−6 M
Experimental: PBMC (2×10^6/ml) from 2 donors were stimulated with 50 μg/ml, PHA; or with astaxanthin (10^−6 M); or with the ginkgolide BN52021 (GB) (10^−4 M); or with a combination of astaxanthin (10^−6 M) plus GB (10^−4 M); or with media. Cells were cultured 24 hours at 37° C., 5% CO2 and analyzed by ELISA for supernatant concentration of TNF-α. Each data point is the mean of triplicate samples.

CC1=C(/C=C/C(C)=C/C=C/C(C)=C/C=C/C=C(C)/C=C/C=C(C)/C=C/C2=C(C)C(=O)[C@@H](O)CC2(C)C)C(C)(C)C[C@H](O)C1=O [astaxanthin, 3,3′-dihydroxy-4,4′-diketo-B-carotene]
alleviation of allergy symptoms such as itching [1]: did not result in alleviation of allergy symptoms | cAMP ([2]; 5 mg/kg): 6.9 ± 0.5 pmol (mg protein)^−1 | cGMP ([2]; 5 mg/kg): 1.2 ± 0.1 pmol (mg protein)^−1 | cAMP ([2]; 10 mg/kg): 8.1 ± 0.8 pmol (mg protein)^−1 | cGMP ([2]; 10 mg/kg): 1.4 ± 0.1 pmol (mg protein)^−1 | cAMP ([2]; 30 mg/kg): 9.6 ± 0.8 pmol (mg protein)^−1 | cGMP ([2]; 30 mg/kg): 1.8 ± 0.3 pmol (mg protein)^−1 | cAMP ([2]; 100 mg/kg): 12.6 ± 0.8 pmol (mg protein)^−1 | cGMP ([2]; 100 mg/kg): 2.8 ± 0.3 pmol (mg protein)^−1 | cAMP ([2]; 200 mg/kg): 12.1 ± 0.5 pmol (mg protein)^−1 | cGMP ([2]; 200 mg/kg): 2.7 ± 0.2 pmol (mg protein)^−1 | CD3+HLA-DR+ Stimulation Index ([3]; 10^−4 M): 0.85 ± 0.18 | CD3+HLA-DR+ Stimulation Index ([3]; 10^−5 M): 0.79 ± 0.19 | CD3+HLA-DR+ Stimulation Index ([3]; 10^−6 M): 0.83 ± 0.23 | CD3+HLA-DR+ Stimulation Index ([3]; 10^−7 M): 0.71 ± 0.23 | CD3+HLA-DR+ Stimulation Index ([3]; 10^−8 M): 0.68 ± 0.16 | CD3+CD25+ Stimulation Index ([4]; 10^−4 M): 0.49 ± 0.09 | CD3+CD25+ Stimulation Index ([4]; 10^−5 M): 0.95 ± 0.06 | CD3+CD25+ Stimulation Index ([4]; 10^−6 M): 0.96 ± 0.10 | CD3+CD25+ Stimulation Index ([4]; 10^−7 M): 0.90 ± 0.05 | CD3+CD25+ Stimulation Index ([4]; 10^−8 M): 0.95 ± 0.05 | % CD3+CD54+ cells (PMA/I-treated human PBMC; Subject A, first column, 10^-6 M): 4.2% | % CD3+CD54+ cells (PMA/I-treated human PBMC; Subject A, first column, 10^-7 M): 8.4% | % CD3+CD54+ cells (PMA/I-treated human PBMC; Subject A, second column, 10^-6 M): 3.3% | % CD3+CD54+ cells (PMA/I-treated human PBMC; Subject A, second column, 10^-7 M): 10.6% | % CD3+CD54+ cells (PMA/I-treated human PBMC; Subject B, first column, 10^-6 M): 6.3% | % CD3+CD54+ cells (PMA/I-treated human PBMC; Subject B, first column, 10^-7 M): 16.2% | % CD3+CD54+ cells (PMA/I-treated human PBMC; Subject B, second column, 10^-6 M): 10.3% | % CD3+CD54+ cells (PMA/I-treated human PBMC; Subject B, second column, 10^-7 M): 21.9% | TNF-alpha (TNF-α): 781.34 pg/mL
